Columns and labels:
[1] = test system: Rattus norvegicus; assay: Biodistribution in Sprague-Darwley rat fat at 120 min after intravenous administration of 70g; assay type: ADME, organism-based, Adipose tissue; settings: in vivo, 2 h
[2] = test system: Rattus norvegicus; assay: Biodistribution in Sprague-Darwley rat liver at 15 min after intravenous administration of 70g; assay type: ADME, organism-based; settings: in vivo, 0.25 h
[3] = test system: Rattus norvegicus; assay: Biodistribution in Sprague-Darwley rat blood at 30 min after intravenous administration of 70g; assay type: ADME, organism-based; settings: in vivo, 0.5 h
[4] = test system: Rattus norvegicus; assay: Biodistribution in Sprague-Darwley rat fat at 15 min after intravenous administration of 70g; assay type: ADME, organism-based, Adipose tissue; settings: in vivo, 0.25 h
[5] = test system: Rattus norvegicus; assay: Biodistribution in Sprague-Darwley rat blood at 2 min after intravenous administration of 70g; assay type: ADME, organism-based; settings: in vivo
[6] = test system: Rattus norvegicus; assay: Biodistribution in Sprague-Darwley rat heart at 60 min after intravenous administration of 70g; assay type: ADME, organism-based; settings: in vivo, 1 h
[7] = test system: Rattus norvegicus; assay: Biodistribution in Sprague-Darwley rat muscle at 2 min after intravenous administration of 70g; assay type: ADME, organism-based, Muscle tissue; settings: in vivo
[8] = test system: Rattus norvegicus; assay: Biodistribution in Sprague-Darwley rat fat at 30 min after intravenous administration of 70g; assay type: ADME, organism-based, Adipose tissue; settings: in vivo, 0.5 h
[9] = test system: Rattus norvegicus; assay: Biodistribution in Sprague-Darwley rat kidney at 60 min after intravenous administration of 70g; assay type: ADME, organism-based; settings: in vivo, 1 h
[10] = test system: Rattus norvegicus; assay: Biodistribution in Sprague-Darwley rat lung at 30 min after intravenous administration of 70g; assay type: ADME, organism-based; settings: in vivo, 0.5 h
[11] = test system: Rattus norvegicus; assay: Biodistribution in Sprague-Darwley rat fat at 60 min after intravenous administration of 70g; assay type: ADME, organism-based, Adipose tissue; settings: in vivo, 1 h
[12] = test system: Rattus norvegicus; assay: Biodistribution in Sprague-Darwley rat rest of brain at 15 min after intravenous administration of 70g; assay type: ADME, organism-based; settings: in vivo, 0.25 h
[13] = test system: Rattus norvegicus; assay: Biodistribution in Sprague-Darwley rat blood at 120 min after intravenous administration of 70g; assay type: ADME, organism-based; settings: in vivo, 2 h
[14] = test system: Rattus norvegicus; assay: Biodistribution in Sprague-Darwley rat muscle at 120 min after intravenous administration of 70g; assay type: ADME, organism-based, Muscle tissue; settings: in vivo, 2 h
[15] = test system: Rattus norvegicus; assay: Biodistribution in Sprague-Darwley rat kidney at 120 min after intravenous administration of 70g; assay type: ADME, organism-based; settings: in vivo, 2 h
[16] = test system: Rattus norvegicus; assay: Biodistribution in Sprague-Darwley rat fat at 2 min after intravenous administration of 70g; assay type: ADME, organism-based, Adipose tissue; settings: in vivo
[17] = test system: Rattus norvegicus; assay: Biodistribution in Sprague-Darwley rat liver at 30 min after intravenous administration of 70g; assay type: ADME, organism-based; settings: in vivo, 0.5 h
[18] = test system: Rattus norvegicus; assay: Biodistribution in Sprague-Darwley rat muscle at 15 min after intravenous administration of 70g; assay type: ADME, organism-based, Muscle tissue; settings: in vivo, 0.25 h
[19] = test system: Rattus norvegicus; assay: Biodistribution in Sprague-Darwley rat lung at 15 min after intravenous administration of 70g; assay type: ADME, organism-based; settings: in vivo, 0.25 h
[20] = test system: Rattus norvegicus; assay: Biodistribution in Sprague-Darwley rat heart at 15 min after intravenous administration of 70g; assay type: ADME, organism-based; settings: in vivo, 0.25 h
[21] = test system: Rattus norvegicus; assay: Biodistribution in Sprague-Darwley rat liver at 2 min after intravenous administration of 70g; assay type: ADME, organism-based; settings: in vivo
[22] = test system: Rattus norvegicus; assay: Biodistribution in Sprague-Darwley rat kidney at 15 min after intravenous administration of 70g; assay type: ADME, organism-based; settings: in vivo, 0.25 h
[23] = test system: Rattus norvegicus; assay: Biodistribution in Sprague-Darwley rat lung at 60 min after intravenous administration of 70g; assay type: ADME, organism-based; settings: in vivo, 1 h
[24] = test system: Rattus norvegicus; assay: Biodistribution in Sprague-Darwley rat heart at 2 min after intravenous administration of 70g; assay type: ADME, organism-based; settings: in vivo
[25] = test system: Rattus norvegicus; assay: Biodistribution in Sprague-Darwley rat muscle at 60 min after intravenous administration of 70g; assay type: ADME, organism-based, Muscle tissue; settings: in vivo, 1 h
[26] = test system: Rattus norvegicus; assay: Biodistribution in Sprague-Darwley rat blood at 15 min after intravenous administration of 70g; assay type: ADME, organism-based; settings: in vivo, 0.25 h
[27] = test system: Rattus norvegicus; assay: Biodistribution in Sprague-Darwley rat blood at 60 min after intravenous administration of 70g; assay type: ADME, organism-based; settings: in vivo, 1 h
[28] = test system: Rattus norvegicus; assay: Biodistribution in Sprague-Darwley rat kidney at 2 min after intravenous administration of 70g; assay type: ADME, organism-based; settings: in vivo
[29] = test system: Rattus norvegicus; assay: Biodistribution in Sprague-Darwley rat kidney at 30 min after intravenous administration of 70g; assay type: ADME, organism-based; settings: in vivo, 0.5 h
[30] = test system: Rattus norvegicus; assay: Biodistribution in Sprague-Darwley rat liver at 60 min after intravenous administration of 70g; assay type: ADME, organism-based; settings: in vivo, 1 h
[31] = test system: Rattus norvegicus; assay: Biodistribution in Sprague-Darwley rat heart at 120 min after intravenous administration of 70g; assay type: ADME, organism-based; settings: in vivo, 2 h
[32] = test system: Rattus norvegicus; assay: Biodistribution in Sprague-Darwley rat muscle at 30 min after intravenous administration of 70g; assay type: ADME, organism-based, Muscle tissue; settings: in vivo, 0.5 h
[33] = test system: Rattus norvegicus; assay: Biodistribution in Sprague-Darwley rat liver at 120 min after intravenous administration of 70g; assay type: ADME, organism-based; settings: in vivo, 2 h
[34] = test system: Rattus norvegicus; assay: Biodistribution in Sprague-Darwley rat rest of brain at 2 min after intravenous administration of 70g; assay type: ADME, organism-based; settings: in vivo
[35] = test system: Rattus norvegicus; assay: Biodistribution in Sprague-Darwley rat rest of brain at 30 min after intravenous administration of 70g; assay type: ADME, organism-based; settings: in vivo, 0.5 h
[36] = test system: Rattus norvegicus; assay: Biodistribution in Sprague-Darwley rat rest of brain at 60 min after intravenous administration of 70g; assay type: ADME, organism-based; settings: in vivo, 1 h
[37] = test system: Rattus norvegicus; assay: Biodistribution in Sprague-Darwley rat rest of brain at 120 min after intravenous administration of 70g; assay type: ADME, organism-based; settings: in vivo, 2 h
[38] = test system: Rattus norvegicus; assay: Biodistribution in Sprague-Darwley rat lung at 2 min after intravenous administration of 70g; assay type: ADME, organism-based; settings: in vivo
[39] = test system: Rattus norvegicus; assay: Biodistribution in Sprague-Darwley rat lung at 120 min after intravenous administration of 70g; assay type: ADME, organism-based; settings: in vivo, 2 h
[40] = test system: Rattus norvegicus; assay: Biodistribution in Sprague-Darwley rat heart at 30 min after intravenous administration of 70g; assay type: ADME, organism-based; settings: in vivo, 0.5 h

ID/g [1]: 1.128%
ID/g [2]: 3.69%
ID/g [3]: 0.213%
ID/g [4]: 0.511%
ID/g [5]: 0.681%
ID/g [6]: 0.305%
ID/g [7]: 0.364%
ID/g [8]: 0.297%
ID/g [9]: 1.281%
ID/g [10]: 0.434%
ID/g [11]: 1.071%
ID/g [12]: 0.63%
ID/g [13]: 0.192%
ID/g [14]: 0.107%
ID/g [15]: 1.779%
ID/g [16]: 0.241%
ID/g [17]: 2.987%
ID/g [18]: 0.379%
ID/g [19]: 0.83%
ID/g [20]: 0.721%
ID/g [21]: 4.121%
ID/g [22]: 1.291%
ID/g [23]: 0.344%
ID/g [24]: 3.285%
ID/g [25]: 0.167%
ID/g [26]: 0.316%
ID/g [27]: 0.202%
ID/g [28]: 3.117%
ID/g [29]: 1.075%
ID/g [30]: 3.309%
ID/g [31]: 0.151%
ID/g [32]: 0.255%
ID/g [33]: 2.892%
ID/g [34]: 1.346%
ID/g [35]: 0.283%
ID/g [36]: 0.185%
ID/g [37]: 0.128%
ID/g [38]: 4.24%
ID/g [39]: 0.224%
ID/g [40]: 0.386%
Substance: [N-(2-Mercapto-2-methylpropyl)-N-(4-methoxyphenyl)-aminato][2-(mercaptomethyl)pyridinato]oxotechnetium V
